In assay [1] the test system is SMC-mediated collagen fibrillogenesis. The experiment in a line: Treatment effects on SMC-mediated collagen fibrillogenesis (FITC-labeled collagen assembly assay, fluorescence plate reader). The conditions noted are these: for % fibrillogenesis of no treatment control: 1 (unit uncertain) of compound (smallest concentration used), green fluorescence normalized by cell density. Format: cell-based, mouse. Also on record: % fibrillogenesis of no treatment control / effect of treatment on SMC-assisted collagen fibrillogenesis (FIG. 5A-B) / effect of treatment on collagen fibrils (FIG. 5C): unit of the concentration uncertain. As for the experimental part:
(§1) In one embodiment, the assay consists of adding a solution of FITC-labeled protein to cultured cells in the presence or absence of various treatments, then returning the cells to the incubator (37° C., 5% CO2) for various periods of time. Supramolecular protein assembly can be followed in time as a gain of fluorescence using a fluorescence plate reader, or by confocal microscopy with live cells or after fixation of cells. Specifically, for the development of this assay, SMC were used that had been plated into black clear-bottomed 96-well tissue culture-treated plates (Fisher) at 10,000 cells per well in 100 µL of DMEM+10% FBS 2 days prior to performing the assay.
After 24 h, the culture medium was changed to DMEM without FBS to promote cell quiescence, then SMC were returned to the incubator (37° C., 5% CO2) for an additional 24 h. Before the start of the assay, the culture medium was aspirated from each well and replaced with 100 µL of FITC-labeled collagen, BSA, or denatured collagen in DMEM without FBS, final concentration between […]. The cells were returned to the incubator for time periods up to 24 h.
At the end of the assay, the culture medium was aspirated and replaced with 10% buffered formalin (Fisher) for 10 min. For normalization of results, cell nuclei were counterstained using HOECHST [500 ng/mL in phosphate-buffered saline (PBS), pH 7.4] for 5 min. The wells subsequently were washed two times with PBS, then 100 µL of PBS were added to each well and the intensity of the fluorescence was measured with a fluorescence plate reader (CytoFluor® series 4000, PerSeptive Biosystems) using the following settings for protein assembly: ex=480 nm, em=530 nm, gain 85, and ex=360 nm, em=460 nm, gain 80 for cell nuclei.
In each quantitative assay, twelve wells of a 96-well plate were used for each condition. Average background readings were obtained from wells without cells or without labeled collagen monomer solution (six each) to ensure that the assay measured only the cell-assisted protein assembly.
To assess the ability of our assay to detect the effects of treatments that interfere with cell cytoskeleton, and therefore may affect fibrillogenesis, SMC were pretreated with […] of cytochalasin D, a chemical that disrupts organization of the actin cytoskeleton, for 30 min prior to the assay. The same concentrations were maintained throughout the assay. Retinoic acid, which has the opposite effect, stiffening SMC cytoskeleton, was added at […] of final concentrations.
To test whether the assay can detect formation of fibrils by incorporating de novo synthesized endogenous collagen, effect of treatments that should directly affect this process were investigated. Ascorbic acid, which enhances the triple helix organization of de novo synthesized collagen, was added at 5, 10, and 50 µM of final concentrations to the SMC culture medium for 24 h prior to the assay and maintained throughout the assay. Homocysteine thiolactone, which is a lysyl oxidase inhibitor and thus impairs the higher organization of collagen, was used at 5, 10, 50, 100, and 500 µM of final concentration in the SMC culture media. To assess the potential effects of these treatments, fibrillogenesis was calculated as the percentage of fibrillogenesis mediated by nontreated SMC.

A further assay relates to mouse aortic SMC. The experiment in a line: Protein assembly assay: FITC-labeled protein added to mouse aortic SMC (plate reader / fluorescence microscopy). The conditions noted are these: labeled protein incubated with SMC for 24 h. In kind it is cell-based. As to the method:
as §1, with “assay. […]” for “assay.”
At the end of the assay, the culture medium was aspirated and replaced with 10% buffered formalin (Fisher) for 10 min. […] The wells subsequently were washed two times with PBS, then 100 µL of PBS were added to each well and the intensity of the fluorescence was measured with a fluorescence plate reader (CytoFluor® series 4000, PerSeptive Biosystems) using the following settings for protein assembly: ex=480 nm, em=530 nm, gain 85, and ex=360 nm, em=460 nm, gain 80 for cell nuclei.
In each quantitative assay, twelve wells of a 96-well plate were used for each condition. […]

Another assay concerns SMC. The experiment in a line: SDS-PAGE / phosphoimager detection of FITC-labeled protein recovered after incubation with SMC. Format: cell-based. The conditions noted are these: 50 or 100 mg/mL, 24 h with SMC in culture. As to the method:
SMC were plated in 6-well tissue culture plates at a density of 500,000 cells per well. After 24 h, the media was aspirated and replaced with 1 mL of serum-free media containing 50 or 100 µg/mL of FITC-labeled BSA, collagen, or denatured collagen and placed back in a 37° C., 5% CO2 incubator for 24 h for assembly. The SMC cultured with labeled proteins then were rinsed twice with PBS, after which cell extracts were taken using […] of acidified (0.02M of acetic acid) lysis buffer. Samples […] from each condition before and after culturing with SMC were run on an 1.5-mm SDS-PAGE gel (Biorad apparatus) for 2 h at 150 V. FITC-labeled protein bands were imaged using a phosphoimager (Storm 860, Molecular Dynamics) with the ability to detect green fluorescence.

Turning to `NC1CCSC1=O` (stereo not shown) [homocysteine thiolactone, Homocysteine thiolactone], the “effect on SMC-mediated collagen assembly” value in assay [1] (up to concentrations twice the IC50 value (5-500 M), data not shown) is on record as “no effects”.

Turning to `CC1=C(/C=C/C(C)=C/C=C/C(C)=C/C(=O)O)C(C)(C)CCC1` [retinoic acid, Retinoic acid], the “% fibrillogenesis of no treatment control” value in assay [1] is given as 59.5±9.4%.

For “labeled BSA: FITC-labeled bovine serum albumin”, the “supramolecular assembly seen by fluorescence microscopy” value with mouse aortic SMC was “No assembly was detected”. In addition, the “association of labeled protein with SMC monolayer (SDS-PAGE)” value in the assay with SMC was “neither BSA nor denatured collagen was associated with cells”.

Turning to `C=C1[C@@H](C)[C@H]2[C@H](Cc3ccccc3)NC(=O)[C@]23[C@H](OC(C)=O)/C=C/[C@@](C)(O)C(=O)[C@@H](C)C/C=C/[C@H]3[C@@H]1O` [cytochalasin D, Cytochalasin D], the “% fibrillogenesis of no treatment control” value in assay [1] is 12.1±1.0%. For the same molecule, the “effect of treatment on SMC-assisted collagen fibrillogenesis (FIG. 5A-B)” value in assay [1] (increasing concentrations (1, 5, 10 (unit uncertain))) is “impairs the ability of SMC to facilitate fibrillogenesis”.

In the case of `O=C1O[C@H]([C@@H](O)CO)C(O)=C1O` [ascorbic acid, Ascorbic acid], in assay [1] (5, 10, 50 (unit uncertain), added 24 h prior to the assay and maintained throughout), the “effect of treatment on collagen fibrils (FIG. 5C)” value is “moderate, yet statistically significant, enhancement of collagen fibrils”.

For the origin of these results see US20050014181A1, “Methods and compositions for the assessment of polymer assembly” (priority 2003, published 2005).
